Source: patent publication US8754209B2, “Indazole derivatives or pharmaceutically acceptable salts thereof as protein kinase inhibitors for proliferative diseases treatment, and a pharmaceutical composition containing the same as an active ingredient” (Korea Institute of Science and Technology, priority 2009, dated 2014)

The compounds below were run on A375P cells (assay: Anti-proliferative activity on A375P cell line (MTT assay)). Conditions: A375P human melanoma cell line.
Type: cell-based
Protocol: A375P cells were purchased from American Type Culture Collection (ATCC, Rockville, Md., US) and maintained in DMEM medium (Welgene, Daegu, Korea) supplemented with 10% FBS (Welgene) and 1% penicillin/streptomycin (Welgene) in a humidified atmosphere with 5% CO2 at 37° C. The A375P cells were taken from culture substrate with 0.05% trypsin-0.02% EDTA and plated at a density of 5×10^3 cells/well in 96 well plates and then incubated at 37° C. for 24 h in a humidified atmosphere with 5% CO2 prior to treatment of various concentration (three fold serial dilution, 12 points) of test compounds. The A357P cell viability was assessed by the conventional 3-(4,5-dimethylthiazol-2-yl)-2,5-diphenyltetrazolium bromide (MTT) reduction assay. MTT assays were carried out with CellTiter 96 (Promega) according to the manufacturer's instructions.
After 1 day, 0.5 μl the representative compounds of the examples were added thereto. The representative compounds of the examples were prepared by three fold serial dilution of 10 mM stock solution in DMSO, 12 point (final conc. DMSO 0.5%). Then, 15 μl dye was added in each well. After 2 h, 100 μl stop solution was added each well. After 24 h, absorbance was measured. The absorbance at 590 nm was recorded using EnVision2103 (PerkinElmer; Boston, Mass., US). The IC50 value was calculated using GraphPad Prism 4.0 software.

| SMILES | GI50 [µM] |
| --- | --- |
| Cc1cc(C(=O)Nc2ccc(-c3ccc4c(C(=O)NCCN5CCOCC5)n[nH]c4c3)cc2)c(C)o1 [Example 33, 6-(4-(2,5-dimethylfuran-3-carboxamido)phenyl)-N-(2-morpholinoethyl)-1H-indazole-3-carboxamide] | < 10 |
| Cc1ccc(NC(=O)Nc2ccc(Cl)c(C(F)(F)F)c2)cc1-c1ccc2c(C(=O)NC3CC3)n[nH]c2c1 [Example 66, 6-(5-(3-(4-chloro-3-(trifluoromethyl)phenyl)ureido)-2-methylphenyl)-N-cyclopropyl-1H-indazole-3-carboxamide] | < 10 |
| O=C(Nc1cccc(-c2ccc3c(C(=O)NCCN4CCOCC4)n[nH]c3c2)c1)Nc1cccc(Cl)c1Cl [Example 60, 6-(3-(3-(2,3-dichlorophenyl)ureido)phenyl)-N-(2-morpholinoethyl)-1H-indazole-3-carboxamide] | < 10 |
| CCOC(=O)c1n[nH]c2cc(-c3cccc(NS(=O)(=O)c4cccc(C(F)(F)F)c4)c3)ccc12 [Example 68, ethyl 6-(3-(3-(trifluoromethyl)phenylsulfonamido)phenyl)-1H-indazole-3-carboxylate] | < 10 |
| Cc1ccc(NC(=O)c2cccc(C(F)(F)F)c2)cc1-c1ccc2c(C(=O)NCCN3CCOCC3)n[nH]c2c1 [Example 67, 6-(2-methyl-5-(3-(trifluoromethyl)benzamido)phenyl)-N-(2-morpholinoethyl)-1H-indazole-3-carboxamide] | < 10 |
| COc1ccc(-n2ncc(C(=O)Nc3ccc(-c4ccc5c(C(=O)NCCN6CCOCC6)n[nH]c5c4)cc3)c2C(F)(F)F)cc1 [Example 34, 6-(4-(1-(4-methoxyphenyl)-5-(trifluoromethyl)-1H-pyrazole-4-carboxamido)phenyl)-N-(2-morpholinoethyl)-1H-indazole-3-carboxamide] | < 10 |
| CCOC(=O)c1n[nH]c2cc(-c3cc(NC(=O)Nc4ccc(N5CCN(C)CC5)c(C(F)(F)F)c4)ccc3C)ccc12 [Example 71, ethyl 6-(2-methyl-5-(3-(4-(4-methylpiperazin-1-yl)-3-(trifluoromethyl)phenyl)ureido)phenyl)-1H-indazole-3-carboxylate] | < 10 |
| O=C(Nc1ccc(-c2ccc3c(C(=O)Nc4cccc(C(F)(F)F)c4)n[nH]c3c2)cc1)c1ccc(Br)s1 [Example 35, 6-(4-(5-bromothiophene-2-carboxamido)phenyl)-N-(3-(trifluoromethyl)phenyl)-1H-indazole-3-carboxamide] | < 10 |
| CNC(=O)c1n[nH]c2cc(-c3cc(NC(=O)c4cc(-n5cnc(C)c5)cc(C(F)(F)F)c4)ccc3C)ccc12 [Example 73, N-methyl-6-(2-methyl-5-(3-(4-methyl-1H-imidazol-1-yl)-5-(trifluoromethyl)benzamido)phenyl)-1H-indazole-3-carboxamide] | < 10 |
| CNC(=O)c1n[nH]c2cc(-c3cc(NC(=O)Nc4cc(-n5cnc(C)c5)cc(C(F)(F)F)c4)ccc3C)ccc12 [Example 75, N-methyl-6-(2-methyl-5-(3-(3-(4-methyl-1H-imidazol-1-yl)-5-(trifluoromethyl)phenyl)ureido)phenyl)-1H-indazole-3-carboxamide] | < 10 |
| CCOC(=O)c1n[nH]c2cc(-c3cccc(NC(=O)c4cc5ccccc5s4)c3)ccc12 [Example 47, ethyl 6-(3-(benzo[b]thiophene-2-carboxamido)phenyl)-1H-indazole-3-carboxylate] | < 10 |
| CCOC(=O)c1n[nH]c2cc(-c3ccc(NC(=O)Nc4cc(C(F)(F)F)cc(C(F)(F)F)c4)cc3)ccc12 [Example 22, ethyl 6-(4-(3-(3,5-bis(trifluoromethyl)phenyl)ureido)phenyl)-1H-indazole-3-carboxylate] | < 10 |
| Cc1ccc(NC(=O)Nc2ccc(Cl)c(C(F)(F)F)c2)cc1-c1ccc2c(C(=O)NCCN(C)C)n[nH]c2c1 [Example 65, 6-(5-(3-(4-chloro-3-(trifluoromethyl)phenyl)ureido)-2-methylphenyl)-N-(2-(dimethylamino)ethyl)-1H-indazole-3-carboxamide] | < 10 |
| CCOC(=O)c1n[nH]c2cc(-c3ccc(NC(=O)c4ccncc4Cl)cc3)ccc12 [Example 13, ethyl 6-(4-(3-chloroisonicotinamido)phenyl)-1H-indazole-3-carboxylate] | < 10 |
| CNC(=O)c1n[nH]c2cc(-c3ccc(NC(=O)c4cc(-n5cnc(C)c5)cc(C(F)(F)F)c4)cc3)ccc12 [Example 39, N-methyl-6-(4-(3-(4-methyl-1H-imidazol-1-yl)-5-(trifluoromethyl)benzamido)phenyl)-1H-indazole-3-carboxamide] | < 10 |
| COC(=O)c1n[nH]c2cc(-c3cccc(NC(=O)Nc4ccc(C)cc4C)c3)ccc12 [Example 56, methyl 6-(3-(3-(2,4-dimethylphenyl)ureido)phenyl)-1H-indazole-3-carboxylate] | < 10 |
| CCOC(=O)c1n[nH]c2cc(-c3ccc(NC(=O)c4ccc(OC)c5ccc(OC)cc45)cc3)ccc12 [Example 15, ethyl 6-(4-(4,7-dimethoxy-1-naphthamido)phenyl)-1H-indazole-3-carboxylate] | < 10 |
| O=C(Nc1ccc(-c2ccc3c(C(=O)NCCN4CCOCC4)n[nH]c3c2)cc1)c1cc2ccccc2s1 [Example 32, 6-(4-(benzo[b]thiophene-2-carboxamido)phenyl)-N-(2-morpholinoethyl)-1H-indazole-3-carboxamide] | < 10 |
| CCNC(=O)c1n[nH]c2cc(-c3cccc(NC(=O)Nc4ccc(C)cc4C)c3)ccc12 [Example 63, 6-(3-(3-(2,4-dimethylphenyl)ureido)phenyl)-N-ethyl-1H-indazole-3-carboxamide] | < 10 |
| CCOC(=O)c1n[nH]c2cc(-c3ccc(NC(=O)c4ccc(-c5cc(C(F)(F)F)ccc5Cl)o4)cc3)ccc12 [Example 16, ethyl 6-(4-(5-(2-chloro-5-(trifluoromethyl)phenyl)furan-2-carboxamido)phenyl)-1H-indazole-3-carboxylate] | < 10 |
| O=C(Nc1ccc(-c2ccc3c(C(=O)NCCN4CCOCC4)n[nH]c3c2)cc1)c1cccc(C(F)(F)F)c1 [Example 30, N-(2-morpholinoethyl)-6-(4-(3-(trifluoromethyl)benzamido)phenyl)-1H-indazole-3-carboxamide] | < 10 |
